Experimental data taken from ChEMBL document CHEMBL1146070, “Investigating the role of stereochemistry in the activity of anticancer acylfulvenes: synthesis, reductase-mediated bioactivation, and cellular toxicity” (J Med Chem, 2006).

System: HEK293
Experiment: Cytotoxicity against HEK293 cells by MTT assay
Type: functional, cell-based
Conditions: Homo sapiens

Work on `CC1=C(CO)C2=C(C)C3(CC3)[C@@](C)(O)C(=O)C2=C1` [IROFULVEN] yielded an IC50 of 1200 nM.

`CC1=CC2=C(C)C3(CC3)[C@@](C)(O)C(=O)C2=C1` [ACYLFULVENE] was tested, and the IC50 was 1400 nM.
